The results in this text go back to US8114619B2, “Methods for diagnosis and optimizing treatment of multiple sclerosis” (The Johns Hopkins University, priority 2006, dated 2012).

Entries after “also recorded” stand apart in the source; their conditions may differ. Non-standard residues stand in square brackets, D forms with d. Residues, ends and D or L forms follow the SMILES beside them. *: point of attachment. Sta = CC(C)C[C@H](N)[C@@H](O)CC(=O)O; Isovaleryl = CC(C)CC(=O)*; 4Abz = Nc1ccc(C(=O)O)cc1; NHOH = ON*

For series [1], the system named is rat mixed hippocampal cultures. Description: in vitro neuroprotection assay against 3-NP, MTT viability. Conditions: for protection from oxidative damage elicited by 3-NP: preincubated one hour prior to 18 hour exposure to 3 mM 3-NP. The text has this:
5, 2007. In Tables 5 and 6 “% Protection vs 3-NP” refers to the increase in cultured neuron viability in the presence of the oxidative stressor 3-nitropropionic acid. For details of the assay, see Example 3 below.
(§1) We sought to evaluate the protective efficacy of a number of modified terpenoid compounds against the against many different neurotoxins, ranging from the chemotoxic 6-OHDA, NMDA, 3-nitropropionic acid (3-NP), and viral proteins such as Tat and gp120. Thus, we established an in vitro neuroprotection assay using rat mixed hippocampal cultures, in which we evaluated the protective efficacy of neuroprotective compounds disclosed herein. The oxidative stressor 3-NP was used to elicit toxicity in the rat hippocampal cultures to mimic the oxidative damage, reactive oxygen species production and ensuing neurodegeneration resulting from HIV infection. Another measure of neurotoxicity which results from HIV infection was evaluated by exposure of the hippocampal cultures to HIV-1 Tat (Li et al (2005), Neurotox Res, 8(1-2):119-134).
(§2) Rat mixed hippocamal neuronal cultures were generated from freshly dissected rat hippocampi (embryonic day 18) in neurobasal media containing 5% fetal bovine serum and 2% B27 supplement. The cells were plated into 96 well plates at a density of 4×10^5 cells/mL and routinely used on days 11-14 following culturing. Cell viability was assessed with MTT [3-(4,5-dimethylthiazol-2-yl)-2,5-diphenyltetrazolium bromide] assay. The MTT assay is based on the ability of a mitochondrial dehydrogenase enzyme from viable cells to cleave the tetrazolium rings of the pale yellow MTT and form dark blue formazan crystals. See Mosmann (1983), J Immunol Methods, 65(1-2):55-63. These crystals are largely impermeable to cell membranes, and thus accumulate within healthy cells. The resultant formazan precipitates are solubilized with DMSO and read on a multiwell scanning spectrophotometer (ELISA reader). The number of surviving cells is directly proportional to the level of the formazan product created.
Mixed hippocampal cultures were incubated with 3-NP (0.5-10 mM) for 18 hours and then assessed for viability using an MTT assay.
(§3) Cultures were preincubated with GPI 1046 or Resveratrol for one hour prior to an 18 hour exposure to 3 mM 3-NP. […] The same neuroprotective compounds were evaluated for efficacy against HIV-1 Tat protein toxicity using the same 1 hour preincubation protocol.

For the next series, the system named is cystatin C. The series is described as follows: effect of protease inhibitors on cystatin C cleavage in CSF. Particulars: control CSF with only full length cystatin C, room temperature 48 hours; FN-439 and pepstatin A 500 ug/ml. The format is biochemical, human.
Series [2] has as its system rat mixed hippocampal cultures. The series is described as follows: neuroprotection against HIV-1 Tat toxicity. The format is cell-based. Conditions: for protection from HIV-1 Tat toxicity: 1 hour preincubation.
Excerpt: as §1, §2, §3

Series [3] deals with human fetal neuronal cultures. The series is described as follows: protection of human fetal neurons against 3-NP. It is filed as cell-based. An excerpt: (§4) Finally, we sought to determine if the compounds tested in rat neuronal cultures would also be effective on cultured human fetal neurons.
The test system of series [4] is human fetal neuronal cultures. The series is described as follows: protection of human fetal neurons against 6-OHDA. The format is cell-based.
Excerpt: as §4

Series [5] has as its system rat neuronal cultures. Description: protection against NMDA excitotoxicity. The format is cell-based.
Excerpt: as §1
(§5) Rat mixed hippocamal neuronal cultures were generated from freshly dissected rat hippocampi (embryonic day 18) in neurobasal media containing 5% fetal bovine serum and 2% B27 supplement. The cells were plated into 96 well plates at a density of 4×10^5 cells/mL and routinely used on days 11-14 following culturing. Cell viability was assessed with MTT [3-(4,5-dimethylthiazol-2-yl)-2,5-diphenyltetrazolium bromide] assay. […] The resultant formazan precipitates are solubilized with DMSO and read on a multiwell scanning spectrophotometer (ELISA reader). […]

In series [6] the test system is rat neuronal cultures. Description: protection against 6-OHDA neurotoxicity. It is filed as cell-based.
Excerpt: as §1, §5

Another series addresses T1, cathepsin B (Homo sapiens, UniProt P07858).
T1 construct: Cell lysates were prepared using a lysis buffer provided with the assay kit; host or cells: THP-1 cell lysate
Description: cathepsin B functional assay. It is filed as biochemical. Conditions: for inhibition of cathepsin B activity: untreated recombinant protein, or protease alone; for ability to inhibit cathepsin B after treatment of cystatin C with MMP-2: recombinant cystatin C treated with MMP-2; for cathepsin B activity after treatment of cystatin C with cathepsin D: recombinant cystatin C treated with cathepsin D. How it is done:
The activity of cathepsin B, a substrate of cystatin C, was measured using an activity assay kit (Biovision Research Products, Mountain View, Calif.). This fluorescence-based assay utilizes the cathepsin-B substrate sequence Arg-Arg labeled with amino-4-trifluoromethyl coumarin […]. Cathepsin-B cleaves the synthetic substrate RR-AFC to release free AFC. THP-1 cells (a monocytic cell line) were used as a source of cathepsin B. Cell lysates were prepared using a lysis buffer provided with the assay kit. Cell lysates from 1×10^6 cells were added to 50 μl of CSF in a microtiter plate (q.s. 100 μl). Two μl of substrate Ac-Arg-Arg-AFC was added to each well and incubated for 1 hr at 37° C. Absorbance was measured using a fluorescent plate reader with a 400 nm excitation filter and 505 nm emission filter. Controls included reaction buffer alone and a cathepsin B inhibitor provided in the kit. All samples were analyzed in duplicate.
Recombinant cystatin C was produced and the ability of MMP-2 and cathepsin D to cleave the recombinant protein was confirmed. As expected, cathepsin D cleaved cystatin C at four different sites, and yielded a 12.5 kD fragment following cleavage from the C terminal region (9). In contrast, MMP-2 cleaved cystatin C at three unique sites (GK, FC, and GT which correspond to amino acids 4,5; 96,97 and 108,109). Recombinant cystatin C was treated with either MMP-2 or cathepsin D and its activity monitored by a cathepsin B functional assay using a kit from Biovision Research Products, Mountain View, Calif. The assay was performed as previously described (4). […] Cathepsin D and MMP-2 alone had no effect on cathepsin B activity (FIG. 9). These observations confirmed that C terminal fragmentation of cystatin C leads to a gain in activity while cleavage in other regions including the N terminal region leads to a loss or decrease of activity of cystatin C.

The mark [7] stands for this setting: listed as Recombinant cystatin C.

Description for cystatin C: We incubated control CSF which contained only the full length cystatin C at room temperature for 48 hours in the presence of various protease inhibitors and monitored it for the presence of the 12.5 kD fragment.

On to `O=C(O)CC[N+](=O)[O-]` [Compound 3-NP, 3-nitropropionic acid], for which the cytotoxicity in series [1] (3 mM 3-NP, 18 hours, MTT assay) is on record as 25-35%.

For the molecule `CC(C)C[C@@H](NC(=O)[C@@H]1CCCN1C(=O)CNC(=O)c1ccc(N)cc1)C(=O)N[C@H](C)C(=O)NO` [FN-439] (H-[4Abz]GP[dL][dA]-{NHOH}), the “effect on cleavage of cystatin C (12.5 kD fragment)” value in the series with cystatin C is on record as “showed inhibition of the breakdown of cystatin C”.

For the molecule `CC(=O)O[C@@H]1CC2C(C)(C)C(=O)C=C[C@]2(C)C2CC[C@]3(C)[C@@H](c4ccoc4)OC(=O)[C@H]4O[C@]43[C@@]21C` (stereo partly drawn) [GEDUNIN], in series [2] (1-10 μM), the “neuroprotection from HIV-1 Tat toxicity at 1-10 μM” value is reported as “nearly complete neuroprotection”. For the same molecule, in series [2], the “protection from HIV-1 Tat toxicity” value is given as “dose dependently protected”.

As to `CCC(C)(C)C(=O)C(=O)N1CCC[C@H]1C(=O)OCCCc1cccnc1` [GPI 1046, reference compound], in series [1], the “protection from oxidative damage elicited by 3-NP” value is reported as “significantly protected”. Moreover, the “protection from HIV-1 Tat toxicity” value in series [2] is “protected hippocampal neurons from Tat toxicity”.

Take `CC1(C)O[C@H]2CC(=O)OC[C@]23[C@H]2CC[C@@]4(C)[C@H](c5ccoc5)OC(=O)[C@H]5O[C@]54[C@]2(C)C(=O)C[C@@H]13` [Limonin]: the “protection against 3-NP” value in series [3] is “dose-dependently protected”. Also, the “protection against 6-OHDA” value in series [4] was “dose-dependently protected”. Moreover, the “protection against NMDA at highest dose” value in the series with rat neuronal cultures [5] (10 μM, highest dose tested) is “complete protection”. Further, the “block of NMDA neurotoxicity” value with rat neuronal cultures [5] (dose-dependent) is “dose-dependently blocked”. For the same molecule, the “protection against 6-OHDA at highest dose” value with rat neuronal cultures [6] (10 μM, highest dose tested) is listed as “complete protection”. In the series on rat neuronal cultures [6] (dose-dependent), the “block of 6-OHDA neurotoxicity” value is “dose-dependently blocked”. Further, in series [2], the “protection from HIV-1 Tat toxicity” value was “dose dependently protected”.

For `C[C@@H]1[C@H](O)[C@@H](C)/C=C/C=C/CC/C=C/C=C/C=C/C=C/C(O[C@H]2O[C@H](C)[C@@H](O)[C@H](N)[C@@H]2O)CC2O[C@](O)(CC(O)C(O)CCC(O)CC(O)CC(O)CC(=O)O[C@H]1C)CC(O)C2C(=O)O` (stereo partly drawn) [NYSTATIN], the “% Protection vs 3NP” value in series [1] (increase in cultured neuron viability in the presence of 3-nitropropionic acid (Table 6)) is 46.72%.

Take `Oc1ccc(C=Cc2cc(O)cc(O)c2)cc1` [RESVERATROL, reference compound]: the “protection from oxidative damage elicited by 3-NP” value in series [1] is “significantly protected”. The “protection from HIV-1 Tat toxicity” value in series [2] is “protected hippocampal neurons from Tat toxicity”.

As to `CC(C)CC(=O)N[C@H](C(=O)N[C@H](C(=O)N[C@@H](CC(C)C)[C@@H](O)CC(=O)N[C@@H](C)C(=O)N[C@@H](CC(C)C)[C@@H](O)CC(=O)O)C(C)C)C(C)C` [pepstatin A] (Isovaleryl-VV[Sta]A[Sta]-OH), the “effect on cleavage of cystatin C (12.5 kD fragment)” value with cystatin C is on record as “showed inhibition of the breakdown of cystatin C; also recorded: significantly prevented cleavage of cystatin C”.

On to “Cathepsin D: protease that cleaves cystatin C from the C terminal region”, for which the “inhibition of cathepsin B activity” value in the series with cathepsin B is recorded as “no effect”.

B1: full length cystatin C: recombinant cystatin C, inhibitor of cysteine proteases including cathepsin B (protein)
chain: SSPGKPPRLVGGPMDASVEEEGVRRALDFAVGEYNKASNDMYHSRALQVVRARKQIVAGVNYFLDVELGRTTCTKTQPNLDNCPFHDQPHLKRKAFCSFQIYAVPWQGTMTLSKSTCQDA
As to B1, in the series with cathepsin B (setting [7]), the “ability to inhibit cathepsin B after treatment of cystatin C with MMP-2” value is on record as “inhibition of CysC activity” and the “cathepsin B activity after treatment of cystatin C with cathepsin D” value was “further enhanced”. In addition, in the series with cathepsin B (listed as cystatin C), the “ability to inhibit cathepsin B after treatment of cystatin C with MMP-2” value was “decrease in its ability to inhibit cathepsin B activity” and the “cathepsin B activity after treatment of cystatin C with cathepsin D” value is listed as “further decrease in cathepsin B activity”. The “inhibition of cathepsin B activity” value in the series with cathepsin B is listed as “significant inhibition”.

B2: MMP-2: matrix metalloprotease that cleaved cystatin C at three sites (protein)
chain: YNFFPRKPKWDKNQITYRIIGYTPDLDPETVDDAFARAFQVWSDVTPLRFSRIHDGEADIMINFGRWEHGDGYPFDGKDGLLAHAFAPGTGVGGDSHFDDDELWTLGEGQVVRVKYGNADGEYCKFPFLFNGKEYNSCTDTGRSDGFLWCSTTYNFEKDGKYGFCPHEALFTMGGNAEGQPCKFPFRFQGTSYDSCTTEGRTDGYRWCGTTEDYDRDKKYGFCPETAMSTVGGNSEGAPCVFPFTFLGNKYESCTSAGRSDGKMWCATTANYDDDRKWGFCPDQGYSLFLVAAHEFGHAMGLEHSQDPGALMAPIYTYTKNFRLSQDDIKGIQELYGASPDIDLGTGPTPTLGPVTPEICKQDIVFDGIAQIRGEIFFFKDRFIWRTVTPRDKPMGPLLVATFWPELPEKIDAVYEAPQEEKAVFFAGNEYWIYSASTLERGYPKPLTSLGLPPDVQRVDAAFNWSKNKKTYIFAGDKFWRYNEVKKKMDPGFPKLIADAWNAIPDNLDAVVDLQGGGHSYFFKGAYYLKLENQSLKSVKFGSIKSDWLGC
Take B2: the “inhibition of cathepsin B activity” value with cathepsin B is listed as “no effect”.
